Assay results taken from the NIST ThermoML archive (doi:10.1016/j.tca.2009.07.006).
Numbers after ± are expanded uncertainties.

Assays:
[1] = xn = mol fraction of the nth substance listed; settings: 101 kPa, Liquid
[2] = molar heat capacity at constant pressure; xn = mol fraction of the nth substance listed; settings: 101 kPa, Liquid, Small sample (50 mg) DSC

CCOS(=O)(=O)[O-].CCn1cc[n+](C)c1 [1-ethyl-3-methylimidazolium ethyl sulfate] + O
Settings	electrical conductivity, x1 = 0.2 [S/m]	electrical conductivity, x1 = 0.4 [S/m]	electrical conductivity, x1 = 0.6 [S/m]	electrical conductivity, x1 = 0.8 [S/m]	molar heat capacity at constant pressure, x1 = 0.2 [J/K/mol]	molar heat capacity at constant pressure, x1 = 0.4 [J/K/mol]	molar heat capacity at constant pressure, x1 = 0.6 [J/K/mol]	molar heat capacity at constant pressure, x1 = 0.8 [J/K/mol]
[1], 293.2 K	2.17 ± 0.042	1.23 ± 0.036	0.74 ± 0.012	0.466 ± 0.014	–	–	–	–
[1], 298.2 K	2.53 ± 0.02	1.44 ± 0.008	0.881 ± 0.014	0.569 ± 0.01	–	–	–	–
[1], 303.2 K	2.95 ± 0.03	1.695 ± 0.004	1.05 ± 0.016	0.696 ± 0.008	–	–	–	–
[1], 308.2 K	3.387 ± 0.03	1.95 ± 0.001	1.25 ± 0.022	0.837 ± 0.01	–	–	–	–
[1], 313.2 K	3.85 ± 0.04	2.243 ± 0.012	1.45 ± 0.028	0.991 ± 0.01	–	–	–	–
[1], 318.2 K	4.34 ± 0.05	2.563 ± 0.012	1.67 ± 0.038	1.159 ± 0.01	–	–	–	–
[1], 323.2 K	4.86 ± 0.08	2.9 ± 0.02	1.91 ± 0.04	1.342 ± 0.012	–	–	–	–
[1], 328.2 K	5.4 ± 0.076	3.257 ± 0.012	2.15 ± 0.062	1.54 ± 0.012	–	–	–	–
[1], 333.2 K	5.93 ± 0.084	3.617 ± 0.024	2.41 ± 0.072	1.746 ± 0.012	–	–	–	–
[1], 338.2 K	6.5 ± 0.07	3.997 ± 0.012	2.69 ± 0.088	1.94 ± 0.001	–	–	–	–
[1], 343.2 K	7.07 ± 0.092	4.393 ± 0.012	2.99 ± 0.11	2.173 ± 0.012	–	–	–	–
[1], 348.2 K	7.64 ± 0.08	4.793 ± 0.012	3.28 ± 0.04	2.417 ± 0.012	–	–	–	–
[1], 353.2 K	8.24 ± 0.072	5.207 ± 0.03	3.62 ± 0.12	2.673 ± 0.024	–	–	–	–
[2], 303.2 K	–	–	–	–	146.4 ± 2.3	218.8 ± 4.5	290 ± 4.5	359.1 ± 6
[2], 308.2 K	–	–	–	–	147.5 ± 2.3	220.3 ± 3.5	291.4 ± 4.5	360.8 ± 6.1
[2], 313.2 K	–	–	–	–	148.7 ± 2.3	221.6 ± 3.7	292.8 ± 4.5	362.3 ± 5.6
[2], 318.2 K	–	–	–	–	149.5 ± 2.3	223.1 ± 3.5	294.4 ± 4.6	364 ± 5.6
[2], 323.2 K	–	–	–	–	150.8 ± 2.3	224.7 ± 3.5	295.9 ± 4.6	365.7 ± 5.7
[2], 328.2 K	–	–	–	–	151.9 ± 2.4	226.1 ± 3.5	297.5 ± 4.6	367.5 ± 5.7
[2], 333.2 K	–	–	–	–	153.2 ± 2.4	227.8 ± 3.5	298.9 ± 4.6	369.3 ± 5.7
[2], 338.2 K	–	–	–	–	154.7 ± 2.4	229.4 ± 3.6	300.6 ± 4.7	371.5 ± 5.8
[2], 343.2 K	–	–	–	–	155.9 ± 2.7	231 ± 3.6	302.2 ± 4.7	373.2 ± 5.8
[2], 348.2 K	–	–	–	–	157.2 ± 2.9	232.8 ± 3.6	304 ± 4.7	375.5 ± 5.8
[2], 353.2 K	–	–	–	–	158.4 ± 3.1	234.6 ± 3.6	305.8 ± 4.7	377.5 ± 5.9

CCn1cc[n+](C)c1.O=S(=O)([O-])C(F)(F)F [1-ethyl-3-methylimidazolium trifluoromethanesulfonate] + O
Settings	electrical conductivity, [1] [S/m]	molar heat capacity at constant pressure, [2] [J/K/mol]
293.2 K, x1 = 0.2	3.437 ± 0.012	–
293.2 K, x1 = 0.4	2.35 ± 0.042	–
293.2 K, x1 = 0.6	1.64 ± 0.026	–
293.2 K, x1 = 0.8	1.17 ± 0.05	–
298.2 K, x1 = 0.2	3.927 ± 0.012	–
298.2 K, x1 = 0.4	2.67 ± 0.06	–
298.2 K, x1 = 0.6	1.86 ± 0.028	–
298.2 K, x1 = 0.8	1.34 ± 0.042	–
303.2 K, x1 = 0.1	–	102.6 ± 1.7
303.2 K, x1 = 0.2	4.47 ± 0.02	133.3 ± 2.1
303.2 K, x1 = 0.4	3.05 ± 0.07	197.5 ± 4.6
303.2 K, x1 = 0.6	2.12 ± 0.034	260.1 ± 4.2
303.2 K, x1 = 0.8	1.56 ± 0.054	320.1 ± 5
303.2 K, x1 = 0.9	–	351 ± 5.4
308.2 K, x1 = 0.1	–	103 ± 2
308.2 K, x1 = 0.2	5.037 ± 0.03	134.1 ± 2.1
308.2 K, x1 = 0.4	3.46 ± 0.06	198.7 ± 5.2
308.2 K, x1 = 0.6	2.42 ± 0.042	261.6 ± 4.1
308.2 K, x1 = 0.8	1.79 ± 0.06	321.9 ± 5
308.2 K, x1 = 0.9	–	352.7 ± 5.5
313.2 K, x1 = 0.1	–	103.4 ± 2
313.2 K, x1 = 0.2	5.613 ± 0.012	134.7 ± 2.1
313.2 K, x1 = 0.4	3.87 ± 0.07	199.9 ± 3.6
313.2 K, x1 = 0.6	2.73 ± 0.042	263.2 ± 4.8
313.2 K, x1 = 0.8	2.01 ± 0.05	323.7 ± 5
313.2 K, x1 = 0.9	–	354.8 ± 5.5
318.2 K, x1 = 0.1	–	103.8 ± 2
318.2 K, x1 = 0.2	6.213 ± 0.024	135.5 ± 2.1
318.2 K, x1 = 0.4	4.31 ± 0.06	201.3 ± 3.1
318.2 K, x1 = 0.6	3.047 ± 0.012	264.5 ± 4.1
318.2 K, x1 = 0.8	2.27 ± 0.07	325.4 ± 5
318.2 K, x1 = 0.9	–	356.7 ± 5.5
323.2 K, x1 = 0.1	–	104.3 ± 1.9
323.2 K, x1 = 0.2	6.837 ± 0.03	136.4 ± 2.2
323.2 K, x1 = 0.4	4.77 ± 0.06	202.4 ± 3.1
323.2 K, x1 = 0.6	3.393 ± 0.024	266 ± 4.1
323.2 K, x1 = 0.8	2.55 ± 0.072	327.3 ± 5.1
323.2 K, x1 = 0.9	–	358.4 ± 5.6
328.2 K, x1 = 0.1	–	105 ± 1.9
328.2 K, x1 = 0.2	7.47 ± 0.034	137.1 ± 2.3
328.2 K, x1 = 0.4	5.24 ± 0.07	203.8 ± 3.2
328.2 K, x1 = 0.6	3.757 ± 0.03	267.6 ± 4.4
328.2 K, x1 = 0.8	2.84 ± 0.09	329.1 ± 5.5
328.2 K, x1 = 0.9	–	360.2 ± 5.6
333.2 K, x1 = 0.1	–	105.5 ± 2
333.2 K, x1 = 0.2	8.113 ± 0.024	138 ± 2.4
333.2 K, x1 = 0.4	5.72 ± 0.09	205.2 ± 3.2
333.2 K, x1 = 0.6	4.127 ± 0.03	269.1 ± 4.2
333.2 K, x1 = 0.8	3.14 ± 0.092	331.1 ± 6.3
333.2 K, x1 = 0.9	–	362 ± 5.6
338.2 K, x1 = 0.1	–	106.1 ± 1.9
338.2 K, x1 = 0.2	8.76 ± 0.02	138.8 ± 2.4
338.2 K, x1 = 0.4	6.22 ± 0.084	206.4 ± 3.5
338.2 K, x1 = 0.6	4.513 ± 0.042	270.9 ± 4.2
338.2 K, x1 = 0.8	3.46 ± 0.092	332.7 ± 6.3
338.2 K, x1 = 0.9	–	364 ± 5.6
343.2 K, x1 = 0.1	–	106.4 ± 2.1
343.2 K, x1 = 0.2	9.413 ± 0.012	139.8 ± 2.4
343.2 K, x1 = 0.4	6.71 ± 0.08	207.7 ± 4.2
343.2 K, x1 = 0.6	4.903 ± 0.042	272.3 ± 4.2
343.2 K, x1 = 0.8	3.78 ± 0.1	334.6 ± 6.5
343.2 K, x1 = 0.9	–	365.9 ± 5.8
348.2 K, x1 = 0.1	–	107 ± 1.8
348.2 K, x1 = 0.2	10.05 ± 0.02	140.6 ± 2.4
348.2 K, x1 = 0.4	7.22 ± 0.088	208.9 ± 4.1
348.2 K, x1 = 0.6	5.307 ± 0.05	273.8 ± 4.9
348.2 K, x1 = 0.8	4.13 ± 0.13	336.4 ± 6.5
348.2 K, x1 = 0.9	–	368 ± 5.7
353.2 K, x1 = 0.1	–	107.5 ± 1.8
353.2 K, x1 = 0.2	10.71 ± 0.042	141.5 ± 2.7
353.2 K, x1 = 0.4	7.75 ± 0.09	210.1 ± 5.5
353.2 K, x1 = 0.6	5.743 ± 0.03	275.5 ± 4.3
353.2 K, x1 = 0.8	4.48 ± 0.09	338.2 ± 6.5
353.2 K, x1 = 0.9	–	369.8 ± 6.1
